Data taken from article PMC11653702, “Targeting the SPC25/RIOK1/MYH9 Axis to Overcome Tumor Stemness and Platinum Resistance in Epithelial Ovarian Cancer” (Advanced Science, 2024).
Several values for one entry are separate records, joined by “and”; a condition that tells them apart may be missing. Identical values can stand only once.

Assays:
caspase-3 and PARP = assay: Western blotting of apoptosis-related proteins in xenografted tumor tissues; type: in vivo, human EOC cells in BALB/c-Nude mice; conditions: SPC25-overexpressing OVCAR3 tumors, CDDP
Method: (§1) In the intraperitoneal tumor model, 1 × 10^6 of the indicated cells stably expressing luciferase were injected intraperitoneally into the mice. Treatment with saline (Vehicle), CDDP (5 mg/kg, 3 times per week for 1 week), CBP1 (10 mg/kg, once in 2 days), or a combination of CDDP (5 mg/kg, 3 times per week for 1 week) and CBP1 (10 mg/kg, once in 2 days) was initiated when the bioluminescence signal reached 2 × 10^7 p/s/cm^2/sr for 6 weeks of continuous treatment cycles. The mice were sacrificed when they became moribund, as determined by an observer blinded to the treatment. Finally, their tumors were excised for qRT‐PCR and Western blotting.
Western Blotting: Western blotting was performed using primary antibodies detailed in Table S5 (Supporting Information). Western blotting grayscale analyses were performed using ImageJ (version 2.0.0; NIH, Bethesda, MD, USA). β-Catenin expression was quantified by determining the gray level of each band using Image J and normalized using α-tubulin.

OVCAR3 cells [1] = assay: Survival of intraperitoneal tumor-bearing nude mice, OVCAR3; type: in vivo, human EOC cells in BALB/c-Nude mice
From the text: Subsequently, we selected 4 representative EOC cell lines (Figure S1F,G, Supporting Information) and validated the role of SPC25 in mediating platinum resistance in EOC through a series of in vitro and in vivo experiments. […] To further establish an EOC mouse model, we intraperitoneally injected BALB/c‐Nude mice with EOC cells with stable luciferase expression. CDDP treatment (three times per week, a week as a cycle) was initiated when the bioluminescence signal reached 2 × 10^7 p/s/cm^2/sr.
as §1

COV644 cells = assay: Cell Counting Kit-8 viability, COV644; type: cell-based, human; conditions: SPC25-overexpressing COV644
Method: Cell Viability Assay: The indicated cells were seeded into 96-well plates at a density of 4 × 10^3 cells per well. Next, the Cell Counting Kit-8 reagent (Dojindo) was added to the wells, followed by incubation at 37°C for 2 h in the dark, after which the optical density at 450 nm was determined on a microplate reader (EPOCH2; BioTek, USA). Each cell line was represented using triplicate wells, and the experiment was repeated three times.

OVCAR3 cells [2] = assay: Annexin V/PI apoptosis, OVCAR3; type: cell-based, human; conditions: for PI+/AnnexinV+: replicates #1-#3
Method: Fluorescence-Activated Cell Sorting Assay: For apoptosis analysis, we used an Annexin V-FITC/PI Apoptosis Detection Kit (#A211-01; Vazyme Biotech), according to the manufacturer’s instructions. We considered the total proportion of Annexin V-positive cells (quadrants II and III) to be the apoptotic rate, regardless of the PI status. All samples were analyzed on a flow cytometer (cytoFLEX LX; Beckman Coulter, Indianapolis, IN, USA), and percentages of apoptotic cells were analyzed using CytExpert (Beckman Coulter).

[NH2][Pt]([NH2])([Cl])[Cl] [CDDP, cisplatin]
activation of caspase-3 and PARP (caspase-3 and PARP): lowered activation | Survival, days after CDDP treatment (OVCAR3 cells [1]; OVCAR3 SPC25-overexpressing, status 1, individual mice): 50 days and 52 days and 51 days and 55 days and 62 days | Survival, days after CDDP treatment (OVCAR3 cells [1]; OVCAR3 Vector, status 0, individual mice): 70 days and 64 days and 82 days and 85 days | Survival, days after CDDP treatment (OVCAR3 cells [1]; OVCAR3 Vector, status 1, individual mice): 58 days and 62 days | survival of tumor-bearing mice (OVCAR3 cells [1]; SPC25-overexpressing OVCAR3, CDDP): decreased survival | cell growth in presence of CDDP (COV644 cells): significantly promoted growth | PI+/AnnexinV+ (OVCAR3 cells [2]; OVCAR3 SPC25, CDDP 10μM): 9.75 and 8.73 and 6.45 | PI+/AnnexinV+ (OVCAR3 cells [2]; OVCAR3 Vector, CDDP 10μM): 21.37 and 25.13 and 28.24 | CDDP-induced apoptosis (OVCAR3 cells [2]; SPC25-overexpressing OVCAR3): considerably reduced
